In brackets after ≈: the same amount, converted by molar mass.
Assay: Solubility of aripiprazole in n-propanol
Format: physicochemical
Conditions: organic solvent or mixture; solvent n-propanol (n-PrOH)
Experimental: The solubility of aripiprazole in n-PrOH is low, only about 7 mg/ml. Therefore, a highly saturated solution could be produced with a very low solution concentration. At such low concentrations, the number of nucleation sites within the nozzle is low enough to prevent substantial blockages. When processing n-PrOH solutions at […], pressure fluctuations were reduced to a more satisfactory level of <35 bar. […] Water was again incorporated into the solution, in an attempt to produce the monohydrate. […] The sample was, however, anhydrous.

O=C1CCc2ccc(OCCCCN3CCN(c4cccc(Cl)c4Cl)CC3)cc2N1 [aripiprazole, 7-(4-[4-(2,3-dichloropheny)-1-piperazinyl]-butoxy)-3,4-dihydro carbostyril]
solubility: ~7000 µg/mL (≈ 15.6 mM)
